pIC50: −log10 of the molar value.
Legend:
Assay type in all cases: biochemical
EGFR = EGFR (Homo sapiens, UniProt P00533); experiment: EGFR kinase inhibition (in vitro kinase assay)
Lck = Lck (Homo sapiens, UniProt P06239); experiment: Lck kinase inhibition (in vitro kinase assay)
Procedure: (§1) Btk kinase activity is determined using a time-resolved fluorescence resonance energy transfer (TR-FRET) methodology. Measurements are performed in a reaction volume of 50 μL using 96-well assay plates. […] The reaction is quenched by the addition of 1.2 equivalents of EDTA (relative to divalent cation) in 25 μL of 1× Lance buffer (Perkin-Elmer). Streptavidin-APC (Perkin-Elmer) and Eu-labeled p-Tyr100 antibody (Perkin-Elmer) in 1× Lance buffer are added in a 25 μL volume to give final concentrations of 100 nM and 2.5 nM, respectively, and the mixture is allowed to incubate for one hour. The TR-FRET signal is measured on a multimode plate reader with an excitation wavelength (λEx) of 330 nm and detection wavelengths (λEm) of 615 and 665 nm. Activity is determined by the ratio of the fluorescence at 665 nm to that at 615 nm. For each compound, enzyme activity is measured at various concentrations of compound. Negative control reactions are performed in the absence of inhibitor in replicates of six, and two no-enzyme controls are used to determine baseline fluorescence levels. Inhibition constants, Ki(app), ware obtained using the program BatchKi (Kuzmic et al. (2000), Anal. Biochem. 286:45-50). IC50s are obtained according to the equation: IC50={Ki(app)/(1+[ATP]/Km^ATP)}+[E]total/2;
(§2) For all kinases, [ATP]=Km^ATP, [Btk]total=0.5 nM and [Lck]total=6 nM.

BTK = biological target: T1, BTK (Homo sapiens, UniProt Q06187); experiment: Btk in vitro inhibitory activity (TR-FRET, mobility shift or radiometric filter binding kinase assay); details: determined using one of the methods outlined in Example 47a, 47b, and 47c
T1 construct: purified from insect cells as a full-length construct containing a N-terminal 6×-His tag; His6 (N); made in house; host or cells: insect cells (baculovirus, Sf21)
Procedure: as §1, §2
Kinase activity is measured in vitro using electrophoretic mobility shift assay. The kinase reactions are assembled in a total volume of 25 μL in 384 well plates. […] The reaction is incubated for one hour and is quenched by the addition of 45 μL of termination buffer (100 mM HEPES, pH7.5, 0.01% Triton X-100, 30 mM EDTA). The terminated reactions are analyzed using 12 channel LabChip® 3000 microfluidic detection instrument (Caliper Life Sciences). The enzymatic phosphorylation of the peptide results in a change in net charge, enabling electrophoretic separation of product from substrate peptide. As substrate and product peptides are separated, two peaks of fluorescence are observed. Change in the relative fluorescence intensity of the substrate and product peaks is the parameter measured, reflecting enzyme activity. In the presence of an inhibitor, the ratio between product and substrate is altered: the signal of the product decreases, while the signal of the substrate increases.
Activity in each sample is determined as the product to sum ratio (PSR): P/(S+P), where P is the peak height of the product peptide and S is the peak height of the substrate peptide. For each compound, enzyme activity is measured at various concentrations (12 concentrations of compound spaced by 3× dilution intervals). Negative control samples (0%-inhibition in the absence of inhibitor) and positive control samples (100%-inhibition, in the presence of 20 mM EDTA) are assembled in replicates of four and are used to calculate %-inhibition values for each inhibitor at each concentration. Percent inhibition (Pinh) is determined using following equation: Pinh=(PSR0%−PSRinh)/(PSR0%−PSR100%)*100,
where PSRmh is the product sum ratio in the presence of inhibitor, PSR0% is the average product sum ration in the absence of inhibitor and PSR100% is the average product sum ratio in 100%-inhibition control samples;
The IC50 values of inhibitors are determined by 4 parameter sigmoidal dose-response model fitting of the inhibition curves (Pinh versus inhibitor concentration) using XLfit 4 software.
Human Btk kinase (Genbank accession # NP_000052) was purified from insect cells as a full-length construct containing a N-terminal 6×-His tag. Btk kinase activity was determined using a radiometric filter binding assay. Measurements are performed in a low μL reaction volume 384-well assay plates. […]

Jak3 = biological target: T2, Jak3 (Homo sapiens, UniProt P52333); experiment: Jak3 kinase inhibition (in vitro kinase assay)
T2 sequence (P52333 1-1124): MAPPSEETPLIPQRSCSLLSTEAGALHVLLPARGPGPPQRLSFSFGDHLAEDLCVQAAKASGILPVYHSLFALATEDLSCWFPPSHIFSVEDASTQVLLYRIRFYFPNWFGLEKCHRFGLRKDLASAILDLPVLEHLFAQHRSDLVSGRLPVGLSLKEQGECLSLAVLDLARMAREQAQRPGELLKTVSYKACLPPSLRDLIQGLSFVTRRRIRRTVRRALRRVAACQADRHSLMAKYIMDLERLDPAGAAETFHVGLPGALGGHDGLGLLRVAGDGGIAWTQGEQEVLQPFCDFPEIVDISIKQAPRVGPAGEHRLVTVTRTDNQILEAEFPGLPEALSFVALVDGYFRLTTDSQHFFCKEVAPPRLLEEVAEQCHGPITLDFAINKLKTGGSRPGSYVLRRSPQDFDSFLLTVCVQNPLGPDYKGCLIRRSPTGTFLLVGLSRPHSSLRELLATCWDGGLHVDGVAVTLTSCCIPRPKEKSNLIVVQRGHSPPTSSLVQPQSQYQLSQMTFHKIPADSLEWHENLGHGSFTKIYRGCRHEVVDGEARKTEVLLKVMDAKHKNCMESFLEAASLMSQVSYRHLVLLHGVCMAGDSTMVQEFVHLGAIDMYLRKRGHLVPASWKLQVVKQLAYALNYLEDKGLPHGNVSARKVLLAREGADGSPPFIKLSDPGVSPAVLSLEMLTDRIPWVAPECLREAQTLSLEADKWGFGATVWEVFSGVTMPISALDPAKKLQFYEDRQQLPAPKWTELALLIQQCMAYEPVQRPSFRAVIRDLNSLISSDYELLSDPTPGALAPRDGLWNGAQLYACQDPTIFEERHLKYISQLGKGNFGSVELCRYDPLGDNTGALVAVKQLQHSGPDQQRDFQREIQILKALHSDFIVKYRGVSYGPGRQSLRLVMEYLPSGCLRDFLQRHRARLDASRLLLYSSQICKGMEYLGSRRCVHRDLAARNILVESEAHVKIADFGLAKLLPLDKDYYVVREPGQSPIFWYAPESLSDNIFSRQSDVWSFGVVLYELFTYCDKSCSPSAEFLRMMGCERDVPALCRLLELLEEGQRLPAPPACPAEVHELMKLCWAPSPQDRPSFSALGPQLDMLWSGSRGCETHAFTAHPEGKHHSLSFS

T1 sequence (Q06187 whole entry): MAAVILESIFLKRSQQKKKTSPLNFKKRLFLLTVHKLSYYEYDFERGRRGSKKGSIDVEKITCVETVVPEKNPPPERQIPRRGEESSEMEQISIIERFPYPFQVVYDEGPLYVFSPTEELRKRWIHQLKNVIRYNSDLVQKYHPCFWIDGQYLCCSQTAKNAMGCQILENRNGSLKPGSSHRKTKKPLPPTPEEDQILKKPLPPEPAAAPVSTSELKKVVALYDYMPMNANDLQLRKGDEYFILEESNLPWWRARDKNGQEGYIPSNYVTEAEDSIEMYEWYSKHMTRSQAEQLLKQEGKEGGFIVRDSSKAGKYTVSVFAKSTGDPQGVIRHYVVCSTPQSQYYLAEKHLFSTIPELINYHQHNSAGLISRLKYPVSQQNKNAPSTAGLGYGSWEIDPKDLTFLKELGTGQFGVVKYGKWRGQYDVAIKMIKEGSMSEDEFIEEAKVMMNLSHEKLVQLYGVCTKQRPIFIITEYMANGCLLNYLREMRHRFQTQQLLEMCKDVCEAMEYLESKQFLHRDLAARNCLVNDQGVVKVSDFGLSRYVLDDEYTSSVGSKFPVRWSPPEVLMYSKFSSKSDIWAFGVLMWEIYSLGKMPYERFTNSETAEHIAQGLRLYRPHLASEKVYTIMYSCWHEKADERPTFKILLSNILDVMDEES
Lck, sequence (P06239 whole entry, species assumed): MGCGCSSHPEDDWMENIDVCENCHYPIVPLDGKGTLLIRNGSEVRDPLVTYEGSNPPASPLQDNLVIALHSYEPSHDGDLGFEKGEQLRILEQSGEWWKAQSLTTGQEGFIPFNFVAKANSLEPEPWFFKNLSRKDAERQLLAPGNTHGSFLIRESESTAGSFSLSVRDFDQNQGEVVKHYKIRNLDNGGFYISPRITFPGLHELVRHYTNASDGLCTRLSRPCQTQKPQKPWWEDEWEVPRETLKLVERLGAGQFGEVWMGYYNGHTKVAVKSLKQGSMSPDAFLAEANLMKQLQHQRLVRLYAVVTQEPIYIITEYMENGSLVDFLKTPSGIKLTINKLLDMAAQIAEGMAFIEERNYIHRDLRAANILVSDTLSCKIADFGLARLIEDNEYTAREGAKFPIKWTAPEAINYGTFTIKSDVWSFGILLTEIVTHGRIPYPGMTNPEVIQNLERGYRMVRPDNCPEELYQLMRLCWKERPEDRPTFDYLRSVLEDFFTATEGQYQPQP
EGFR, sequence (P00533 25-1210, species assumed): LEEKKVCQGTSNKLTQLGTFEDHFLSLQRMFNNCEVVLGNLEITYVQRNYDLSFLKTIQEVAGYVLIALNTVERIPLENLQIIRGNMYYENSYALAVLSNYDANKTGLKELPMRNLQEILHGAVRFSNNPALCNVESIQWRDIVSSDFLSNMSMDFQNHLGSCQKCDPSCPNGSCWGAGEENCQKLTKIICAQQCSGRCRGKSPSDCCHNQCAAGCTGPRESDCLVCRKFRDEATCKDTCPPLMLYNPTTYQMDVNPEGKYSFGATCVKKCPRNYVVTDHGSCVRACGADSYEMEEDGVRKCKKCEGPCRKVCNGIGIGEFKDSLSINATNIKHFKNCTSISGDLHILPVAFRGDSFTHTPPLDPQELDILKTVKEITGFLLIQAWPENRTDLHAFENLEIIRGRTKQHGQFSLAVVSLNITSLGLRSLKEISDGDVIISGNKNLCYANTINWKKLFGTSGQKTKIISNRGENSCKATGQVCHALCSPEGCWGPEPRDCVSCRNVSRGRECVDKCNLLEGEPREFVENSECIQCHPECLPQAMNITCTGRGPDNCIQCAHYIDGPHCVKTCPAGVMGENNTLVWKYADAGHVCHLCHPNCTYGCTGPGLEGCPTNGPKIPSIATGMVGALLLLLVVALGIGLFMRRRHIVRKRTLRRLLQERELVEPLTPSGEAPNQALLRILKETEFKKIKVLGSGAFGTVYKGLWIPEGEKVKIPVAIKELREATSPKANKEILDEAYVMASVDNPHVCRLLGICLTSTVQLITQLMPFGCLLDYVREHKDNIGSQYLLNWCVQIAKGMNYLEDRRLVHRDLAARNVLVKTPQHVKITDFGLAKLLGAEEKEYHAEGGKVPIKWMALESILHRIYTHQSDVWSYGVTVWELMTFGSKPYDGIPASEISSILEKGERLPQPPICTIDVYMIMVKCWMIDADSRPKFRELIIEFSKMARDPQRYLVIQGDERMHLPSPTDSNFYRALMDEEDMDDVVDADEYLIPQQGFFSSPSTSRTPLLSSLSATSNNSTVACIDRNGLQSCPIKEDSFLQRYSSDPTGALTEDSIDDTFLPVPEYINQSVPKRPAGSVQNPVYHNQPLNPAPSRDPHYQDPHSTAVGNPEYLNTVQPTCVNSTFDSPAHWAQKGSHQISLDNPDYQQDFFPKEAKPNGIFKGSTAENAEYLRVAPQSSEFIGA

Row | Structure (SMILES) | pIC50 (EGFR) | pIC50 (Lck) | pIC50 (BTK) | pIC50 (Jak3)
1 | Cc1ccnc(NC(=O)c2ccc(-c3nn([C@@H]4CCN(C(=O)/C=C/CN(C)C)C4)c4ncnc(N)c34)cc2)c1 [Example 25, (R,E)-4-(4-amino-1-(1-(4-(dimethylamino)but-2-enoyl)pyrrolidin-3-yl)-1H-pyrazolo[3,4-d]pyrimidin-3-yl)-N-(4-methylpyridin-2-yl)benzamide] | 5.00 to 6.00 | < 5.00 | > 9.00 | < 5.00
2 | C=CC(=O)N[C@H]1CC[C@H](n2nc(-c3ccc(C(=O)Nc4cc(C)ccn4)cc3)c3c(N)ncnc32)CC1 [Example 27, 4-(1-((1,4-trans)-4-acrylamidocyclohexyl)-4-amino-1H-pyrazolo[3,4-d]pyrimidin-3-yl)-N-(4-methylpyridin-2-yl)benzamide] | – | < 5.00 | > 9.00 | < 5.00
3 | CNC/C=C/C(=O)N1CC[C@@H](n2nc(-c3ccc(C(=O)Nc4cc(C)ccn4)cc3)c3c(N)ncnc32)C1 [Example 22, (R,E)-4-(4-amino-1-(1-(4-(methylamino)but-2-enoyl)pyrrolidin-3-yl)-1H-pyrazolo[3,4-d]pyrimidin-3-yl)-N-(4-methylpyridin-2-yl)benzamide] | 6.00 to 7.00 | 6.00 to 7.00 | > 9.00 | < 5.00
4 | Cc1ccnc(NC(=O)c2ccc(-c3nn([C@@H]4CCN(C(=O)/C=C/CNC5CC5)C4)c4ncnc(N)c34)cc2)c1 [Example 23, (R,E)-4-(4-amino-1-(1-(4-(cyclopropylamino)but-2-enoyl)pyrrolidin-3-yl)-1H-pyrazolo[3,4-d]pyrimidin-3-yl)-N-(4-methylpyridin-2-yl)benzamide] | 6.00 to 7.00 | 6.00 to 7.00 | > 9.00 | < 5.00
5 | Cc1ccnc(NC(=O)c2ccc(-c3nn([C@H]4CC[C@H](NC(=O)/C=C/CN(C)C)CC4)c4ncnc(N)c34)cc2)c1 [Example 28, 4-(4-amino-1-((1,4-trans)-4-((E)-4-(dimethylamino)but-2-enamido)cyclohexyl)-1H-pyrazolo[3,4-d]pyrimidin-3-yl)-N-(4-methylpyridin-2-yl)benzamide] | 6.00 to 7.00 | < 5.00 | > 7.00 | < 5.00
6 | CN(C/C=C/C(=O)N1CC[C@@H](n2nc(-c3ccc(C(=O)Nc4ncc(C#N)s4)cc3)c3c(N)ncnc32)C1)C1CC1 [Example 12, (R,E)-4-(4-amino-1-(1-(4-(cyclopropyl(methyl)amino)but-2-enoyl)pyrrolidin-3-yl)-1H-pyrazolo[3,4-d]pyrimidin-3-yl)-N-(5-cyanothiazol-2-yl)benzamide] | > 7.00 | > 7.00 | > 7.00 | > 9.00
7 | CN(C)C/C=C/C(=O)N1CC[C@@H](n2nc(-c3ccc(C(=O)Nc4cc(C(F)(F)F)ccn4)cc3)c3c(N)ncnc32)C1 [Example 26, (R,E)-4-(4-amino-1-(1-(4-(dimethylamino)but-2-enoyl)pyrrolidin-3-yl)-1H-pyrazolo[3,4-d]pyrimidin-3-yl)-N-(4-(trifluoromethyl)pyridin-2-yl)benzamide] | 6.00 to 7.00 | < 5.00 | > 9.00 | < 5.00

Results, then the molecule that gave them:

Row | pIC50 (EGFR) | pIC50 (Lck) | pIC50 (BTK) | pIC50 (Jak3) | Structure (SMILES)
8 | 6.00 to 7.00 | > 7.00 | > 9.00 | < 5.00 | CN(C/C=C/C(=O)N[C@H]1CC[C@H](n2nc(-c3ccc(C(=O)Nc4cc(C(F)(F)F)ccn4)cc3)c3c(N)ncnc32)CC1)C1CC1 [Example 20, 4-(4-amino-1-((1,4-trans)-4-((E)-4-(cyclopropyl(methyl)amino)but-2-enamido)cyclohexyl)-1H-pyrazolo[3,4-d]pyrimidin-3-yl)-N-(4-(trifluoromethyl)pyridin-2-yl)benzamide]
9 | > 9.00 | > 7.00 | > 7.00 | > 7.00 | CN(C/C=C/C(=O)N1CC[C@@H](n2nc(-c3ccc(C(=O)Nc4nccs4)cc3)c3c(N)ncnc32)C1)C1CC1 [Example 13, (R,E)-4-(4-amino-1-(1-(4-(cyclopropyl(methyl)amino)but-2-enoyl)pyrrolidin-3-yl)-1H-pyrazolo[3,4-d]pyrimidin-3-yl)-N-(thiazol-2-yl)benzamide]
10 | 6.00 to 7.00 | > 7.00 | > 9.00 | < 5.00 | CC#CC(=O)N[C@H]1CC[C@H](n2nc(-c3ccc(C(=O)Nc4cc(C(F)(F)F)ccn4)cc3)c3c(N)ncnc32)CC1 [Example 19, 4-(4-amino-1-((1,4-trans)-4-but-2-ynamidocyclohexyl)-1H-pyrazolo[3,4-d]pyrimidin-3-yl)-N-(4-(trifluoromethyl)pyridin-2-yl)benzamide]
11 | > 7.00 | > 7.00 | > 9.00 | < 5.00 | Nc1ncnc2c1c(-c1ccc(C(=O)Nc3cc(C(F)(F)F)ccn3)cc1)nn2[C@@H]1CCN(C(=O)/C=C/CNC2CC2)C1 [Example 24, (R,E)-4-(4-amino-1-(1-(4-(cyclopropylamino)but-2-enoyl)pyrrolidin-3-yl)-1H-pyrazolo[3,4-d]pyrimidin-3-yl)-N-(4-(trifluoromethyl)pyridin-2-yl)benzamide]
12 | > 7.00 | > 7.00 | > 9.00 | < 5.00 | CNC/C=C/C(=O)N1CC[C@@H](n2nc(-c3ccc(C(=O)Nc4cc(C(F)(F)F)ccn4)cc3)c3c(N)ncnc32)C1 [Example 21, (R,E)-4-(4-amino-1-(1-(4-(methylamino)but-2-enoyl)pyrrolidin-3-yl)-1H-pyrazolo[3,4-d]pyrimidin-3-yl)-N-(4-(trifluoromethyl)pyridin-2-yl)benzamide]

Source: US9624224B2, “Inhibitors of Bruton's tyrosine kinase” (Pharmacyclics LLC, priority 2013, dated 2017)
